Assay results reported in paper PMC467105, “A comprehensive investigation of the anion inhibition profile of a β-carbonic anhydrase from Acinetobacter baumannii for crafting innovative antimicrobial treatments” (Journal of Enzyme Inhibition and Medicinal Chemistry, 2024).
Like-named read-outs stand apart in the source and are kept apart here.

Tests used:
[1] = target: β-AbauCA (Acinetobacter baumannii β-CA, CanB) (Acinetobacter baumannii, UniProt A0A7U3Y636); assay: biochemical; type: biochemical
Chain of UniProt A0A7U3Y636 (A0A7U3Y636 1-204): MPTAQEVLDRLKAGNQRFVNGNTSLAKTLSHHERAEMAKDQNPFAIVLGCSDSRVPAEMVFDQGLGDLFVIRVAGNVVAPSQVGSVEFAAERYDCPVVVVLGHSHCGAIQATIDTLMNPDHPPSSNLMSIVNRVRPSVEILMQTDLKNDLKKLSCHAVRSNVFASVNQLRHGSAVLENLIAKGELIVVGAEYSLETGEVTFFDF

[2] = target: PgiCAβ (Porphyromonas gingivalis β-CA); set-up: method as in PMID 24146373; conditions: cited from earlier work
[3] = CO2 hydrase, stopped-flow assay

SMILES | Ki ([1]; read-out: Ki β-AbauCA) [mM] | Ki [2, 3] [mM] | Ki [2] [mM] | affinity / Ki for β-AbauCA (in words) [1] | Ki [1] [mM]
F [F^-] | > 100 | 7.8 | – | – | –
O=NO [NO2^-, nitrite] | 31.1 | – | 7.8 | – | –
N#CS [SCN^-, thiocyanate] | – | 1.9 | – | low millimolar affinity | –
[O]=[Sn]([OH])[OH] [SnO3^2-, stannate] | 2.4 | – | – | low millimolar affinity | –
F[B-](F)(F)F [BF4^-, tetrafluoroborate] | > 100 | > 100 | – | – | –
O=S(=O)(O)OOS(=O)(=O)O [S2O8^2-, peroxydisulfate] | 3.8 | 9.2 | – | low millimolar affinity | –
OB(O)c1ccccc1 [Ph-B(OH)2, phenylboronic acid] | – | – | 0.077 | submillimolar | 0.29
[N-]=[N+]=[N-] [N3^-, azide] | > 100 | – | > 100 | – | –
O=[N+]([O-])O [NO3^-, nitrate] | 47.9 | > 100 | – | – | –
[O]=[Re](=[O])(=[O])[O-] [ReO4^-, perrhenate] | 8.1 | – | – | low millimolar affinity | –
O=S(=O)(O)NS(=O)(=O)O [NH(SO3)2^2-, iminodisulfonate] | 0.93 | 2.1 | – | submillimolar | –
O=C(O)O [CO3^2-, carbonate] | > 100 | – | 3.7 | – | –
O=[Se](=O)(O)O [SeO4^2-, selenate] | 18.4 | – | 9.2 | – | –
N#C[SeH] [SeCN^-, selenocyanide] | 0.71 | – | 2.4 | submillimolar | –
I [I^-] | > 100 | 21.4 | – | – | –
[O]=[Ru](=[O])(=[O])=[O] [RuO4^-, perrhuthenate] | 0.96 | – | – | submillimolar | –
O=C(O)O [HCO3^-, bicarbonate] | – | – | 7.3 | – | –
NS(N)(=O)=O [Anion H2NSO2NH2, sulfamide] | 2.1 | 0.078 | – | low millimolar affinity | –

SMILES | Ki ([1]; read-out: Ki β-AbauCA) [mM] | Ki [2, 3] [mM] | Ki [2] [mM] | affinity / Ki for β-AbauCA (in words) [1] | Ki [1] [mM]
O=S(=O)(O)O [SO4^2-, sulphate] | 79.3 | – | > 100 | – | –
O=[As](O)(O)c1ccccc1 [Ph-AsO3H2, phenylarsonic acid] | – | – | 0.076 | – | –
Br [Br^-] | > 100 | 15.9 | – | – | –
F[P-](F)(F)(F)(F)F [PF6^-, hexafluorophosphate] | – | 8.2 | – | – | –
CCN(CC)C(=S)S [Et2NCS2^-, diethyldithiocarbamate] | – | 0.23 | – | low millimolar affinity | 8.2
O=S(=O)(O)C(F)(F)F [CF3SO3^-, triflate] | > 100 | 8.5 | – | – | –
[O-][Cl+3]([O-])([O-])O [ClO4^-, perchlorate] | > 100 | – | > 100 | – | –
S=C(S)S [CS3^2-, trithiocarbonate] | 3.3 | 4.3 | – | low millimolar affinity | –
N#CO [CNO^-, cyanate] | 0.79 | – | 0.76 | submillimolar | –
O=[Te](=O)(O)O [TeO4^2-, tellurate] | 6 | – | – | – | –
O=S(O)O [HSO3^-, bisulphite] | 59.1 | > 100 | – | – | –
[O]=[V]([OH])([OH])[O][V](=[O])([OH])[OH] [V2O7^4-, divanadate] | 5.8 | – | – | low millimolar affinity | –
Cl [Cl^-] | > 100 | 7.5 | – | – | –
S [HS^-, hydrogensulfide] | 0.4 | – | 4.5 | submillimolar | –
NS(=O)(=O)O [Anion H2NSO3H, sulphamic acid] | 0.63 | 0.06 | – | submillimolar | –
O=P(O)(O)OP(=O)(O)O [P2O7^4-, pyrophosphate] | 33.6 | 8.2 | – | – | –
OB1OB2OB(O)OB(O1)O2 [B4O7^2-, tetraborate] | 6.9 | – | – | low millimolar affinity | –
